Source: patent US6635242B2, “Broad spectrum microbicidal and spermicidal compositions, devices, and methods” (The Pennsylvania State University, priority 1998, dated 2003)

How the values were obtained:
[1] = test system: BPV-1; test: BPV-1 focus assay in C127 mouse cells; format: cell-based, bovine papillomavirus; conditions: bovine papillomavirus
Protocol: Cell-free stocks of BPV-1 were prepared by extraction (10% w/v) of epidermal bovine warts in phosphate buffered saline (PBS). In order to detect the transforming ability of BPV-1, C127 mouse cells were seeded (3×10^5 cells per flask) into T-25^2 flasks. After 24 hr of growth, subconfluent cells were infected with BPV-1. For the positive controls, stock virus (20 μl) was diluted (1:1) with PBS, incubated at 37° C. for 10 min, diluted […] and then added (100 μl ) into the 5 ml of cell culture medium present on the cells. Cells were refed at 24 hours and subsequently 2 times weekly. The presence of morphologically transformed foci was counted after 2 weeks and then again at 3 weeks.
Virus inactivations were carried out in vitro by addition of concentrated SDS solutions to the virus stocks (20 μl of virus plus 20 μl of detergent) and subsequent incubation at 37° C. for 10 or 30 min as indicated. Following inactivation, virus was diluted 1000 fold to lower the detergent concentration and the preparations were immediately used for infection as above.
Although SDS could effectively reduce HSV-2 infectivity, it remained possible that this destruction was mediated by envelope removal. Because papillomaviruses are non-enveloped, the possibility remained that SDS would fail to inactivate these viruses. We utilized BPV-1 as a prototype PV because of its ability to rapidly (within 2 weeks) form multi-layered transformed foci in mouse fibroblasts in an in vitro assay. Table 3 describes results of two separate experiments in which stocks of BPV-1 were incubated at 37° C. with various concentrations of SDS (5% to 5×10^−4%) for either 10 or 30 minutes, diluted to lower the SDS concentration (to avoid cell toxicity) and then used to infect C127 cells. […] Table 4 lists several other commercially available detergents that were tested for possible inactivation of BPV-1. None of these detergents inactivated the morphologic transforming properties of the BPV-1.

[2] = test system: CRPV; format: in vivo, cottontail rabbit papillomavirus; conditions: 10^−2 dilution of CRPV stock, 0.05% N-9, 37° C. 10 min; 10 sites each, 3-6 weeks
[3] = test system: HIV-1-infected SupT1 cells; test: Cell-associated HIV-1 infectivity (FIG. 6); format: cell-based, human immunodeficiency virus; conditions: 10 min at 37° C., co-culture with HCLB cells, FIG. 6(a)
Protocol: (A) SupT1 T lymphocytes (8×10^4)infected 5 days prior with HIV-1 strain IIIB were pelleted and resuspended in new media to remove cell-free virus. After exposure to selected concentrations of each microbicide for 10 min at 37° C., the cells were diluted 1:10 and co-cultured with HCLB cells for 2 h. Following one wash with PBS to remove the infected lymphocytes, the indicator cells were cultured and assayed. Infectivity following exposure is expressed as a percentage relative to the number of β-gal-positive cells in duplicate wells infected with HIV-1 infected SupT1 cells incubated in the absence of a microbicidal compound. Results shown in FIG. 6(a) are the average cell counts for a total of four wells per concentration in two independent experiments. (B) SupT1 T lymphocytes (8×10^4) were incubated with selected concentrations of each microbicide for 10 min at 37° C., and then diluted 1:10 with new media. Following a 2 h incubation period, the cells were assessed for viability. Cell survival after treatment is expressed as the fraction of viable cells relative to the number of mock-exposed cells. Results shown in FIG. 6(b) are the average of two experiments in which triplicate wells for each concentration were assayed.

[4] = test system: Bovine sperm; test: Bovine sperm motility following detergent addition; format: cell-based; design: key to Bovine Sperm Motility Following Detergent Addition: +++: Vigorous swimming; ++/−: Many swimmers/some dead; +/−: Occasional swimmer/most dead; −: All dead
Text: The following data represent an in vitro experiment to test the efficacy of SDS and other detergents as spermicidal agents. Frozen samples of bull semen were obtained, thawed and placed in a test tube. Aliquots were taken out and put in a separate test tube where they were mixed with detergent (SDS, C31G, N-9 or a mixture of SDS and N-9) to a final percent as listed in Tables 8 and 9 below. After mixing, the samples were immediately placed on a microscope slide and visually examined for sperm movement. The experiment was conducted one sample at a time so that the visual examination was conducted immediately after addition of detergent to the sample. As a result, indications in the table of complete inactivation indicate virtually instantaneous inactivation of the sperm. […] Occasional swimmers means very few, on the order of approximately 1% of the population of sperm present in the sample, indicating approximately 99% of the sperm were inactivated by the detergent.

[5] = test system: lymphocyte-, macrophage- and dual-tropic strains of HIV-1 (IIIB, BaL, 89.6); test: Cell-free HIV-1 inactivation (FIG. 5); format: cell-based, human immunodeficiency virus; conditions: HCLB or P4-R5 indicator cells
Protocol: Cell-free HIV-1 strain IIIB (A) was treated with N-9, C31G, or SDS, and used to infect HCLB cells. Cell-free HIV-1 strains BaL (M tropic) (B) and 89.6 (dual tropic) (C) were treated with N-9, C31G or SDS,and used to infect P4-R5 cells. Assays were conducted. Infectivity following exposure is expressed as a percentage relative to the number of β-gal-positive cells in duplicate wells infected with virus incubated in the absence of a microbicidal compound. Results shown in FIG. 5 are the average cell counts for a total of four wells per concentration in two independent experiments.

`CCCCCCCCCCCC(=O)[O-].[Na+]` [NA+ Lauric Acid, sodium salt of lauric acid] was tested. Which “anti-papillomavirus activity in the C127 focus assay” value (“anti-papillomavirus activity” for short) [1] did it give?
Its value is “have anti-papillomavirus activity”.

`CCCCCCCCCCCCOS(=O)(=O)[O-].[Li+]` [LDS, lithium dodecyl sulfate] was tested. Which “anti-papillomavirus activity” value [1] did it give?
Its value is “have anti-papillomavirus activity”.

`CCCCCCCCCCCC(=O)O` [Lauric Acid, lauric acid] was tested. Which “anti-papillomavirus activity” value [1] did it give?
The value was “have anti-papillomavirus activity”.

For Nonoxynol-9 [N-9, reference compound], which “growth of papillomas (GMD) from treated versus normal CRPV (FIG. 2b)” value [2] is on record?
Its value is “not a difference in the growth of the lesions”.

And the “cell-associated infectivity of HIV-1-infected SupT1 cells” value [3]?
Its value is “can reduce the cell-associated infectivity”.

What about the “Bovine Sperm Motility Following Detergent Addition” value ([4]; Table 8, 0.0125% detergent) of the same compound?
The value was “+++”.

What about the “Bovine Sperm Motility Following Detergent Addition” value ([4]; Table 8, 0.025% detergent) of the same compound?
Its value is “−”.

What about the “Bovine Sperm Motility Following Detergent Addition” value ([4]; Table 8, 0.5% detergent) of the same compound?
Its value is “−”.

And the “Bovine Sperm Motility Following Detergent Addition” value ([4]; Table 8, 1% detergent)?
The value was “−”.

What about the “Bovine Sperm Motility Following Detergent Addition” value ([4]; Table 8, 2% detergent) of the same compound?
Its value is “−”.

And the “Bovine Sperm Motility Following Detergent Addition” value ([4]; Table 9, 0.125% detergent)?
The value was “+++”.

And the “Bovine Sperm Motility Following Detergent Addition” value ([4]; Table 9, 0.25% detergent)?
Its value is “+++”.

And the “Bovine Sperm Motility Following Detergent Addition” value ([4]; Table 9, 0.5% detergent)?
Its value is “+++”.

And the “Bovine Sperm Motility Following Detergent Addition” value ([4]; Table 9, 1% detergent)?
Its value is “++/−”.

And the “Bovine Sperm Motility Following Detergent Addition” value ([4]; Table 9, 2% detergent)?
Its value is “−”.

And the “inactivation of cell-free HIV-1 strains IIIB, BaL and 89.6 (infectivity, β-gal-positive cells)” value [5]?
The value was “inactivated”.
